This is an account of results in ChEMBL document CHEMBL5576084, “Development of chromone-thiazolidine-2,4-dione Knoevenagel conjugates as apoptosis inducing agents” (Bioorg Med Chem Lett, 2024).

Structures are written as SMILES. A value given as a limit tells only on which side of the number the result lay.

A short description of data set [1]: Cytotoxicity against HEK293 cells assessed as inhibition of cell growth incubated for 48 hrs by MTT assay. The class given is toxicity, cell-based. Particulars: human. For orientation: Formazan colour is commonly taken as a measure of viable cells.
The subject of data set [2] is HepG2. In words: Cytotoxicity against human HepG2 cells assessed as inhibition of cell growth incubated for 48 hrs by MTT assay. The format is functional, cell-based. Particulars: HepG2, 48 h.
In data set [3] the test system is MCF7. The data set can be described thus: Cytotoxicity against human MCF7 cells assessed as inhibition of cell growth incubated for 48 hrs by MTT assay. The class given is functional, cell-based. The note with it: MCF7, 48 h.
Data set [4] concerns A549. In words: Cytotoxicity against human A549 cells assessed as inhibition of cell growth incubated for 48 hrs by MTT assay. The class given is functional, cell-based. The note with it: A549, 48 h.
Data set [5] relates to SK-MEL-28. In words: Cytotoxicity against human SK-MEL-28 cells assessed as inhibition of cell growth incubated for 48 hrs by MTT assay. The format is functional, cell-based. The note with it: SK-MEL-28, 48 h.
Data set [6] has as its system HCT-116. In words: Cytotoxicity against human HCT-116 cells assessed as inhibition of cell growth incubated for 48 hrs by MTT assay. The class given is functional, cell-based. The note with it: HCT-116, 48 h.

What is called IC50 is the concentration that gives 50% inhibition. With `Cc1ccc(C(=O)CN2C(=O)S/C(=C\c3coc4ccccc4c3=O)C2=O)cc1`, in data set [1], the IC50 at 48 h is 28.2 µM. Further, the concentration for half-maximal inhibition (IC50) in data set [2] is > 10 µM; in data set [3] it was > 10 µM; in data set [4], 8.7 µM; in data set [5] it was > 10 µM; in data set [6] it was > 10 µM.
Turning to `Cc1ccc(C(=O)CN2C(=O)S/C(=C\c3coc4cc(Br)ccc4c3=O)C2=O)cc1`, the half-inhibitory concentration (IC50) at 48 h in data set [1] turned out to be 15.1 µM. Moreover, the IC50 is > 10 µM in data set [2]; 10.1 µM in data set [3]; 6.5 µM in data set [4]; > 10 µM in data set [5]; > 10 µM in data set [6].
For the compound `Cc1ccc2occ(/C=C3\SC(=O)N(CC(=O)c4ccc(F)cc4)C3=O)c(=O)c2c1`, the half-maximal inhibitory concentration (IC50) at 48 h in data set [1] came out at 15.2 µM. Besides, the half-inhibitory concentration (IC50) in data set [2], in data set [3], in data set [4], in data set [5] and in data set [6] was > 10 µM throughout.
With `Cc1ccc2occ(/C=C3\SC(=O)N(CC(=O)c4ccc(Br)cc4)C3=O)c(=O)c2c1`, the IC50 at 48 h in data set [1] stood at 16.5 µM. Moreover, the IC50 is > 10 µM in data set [2]; > 10 µM in data set [3]; > 10 µM in data set [4]; 9.1 µM in data set [5]; > 10 µM in data set [6].
Turning to `O=C(CN1C(=O)S/C(=C\c2coc3ccccc3c2=O)C1=O)c1ccc(Cl)c(Cl)c1`, in data set [1], the half-maximal inhibitory concentration (IC50) at 48 h came out at 19.6 µM. Further, the half-maximal inhibitory concentration (IC50) in data set [2] was > 10 µM; in data set [3], 9.1 µM; in data set [4], > 10 µM; in data set [5], > 10 µM; in data set [6], > 10 µM.
On to `Cc1ccc2occ(/C=C3\SC(=O)N(CC(=O)c4ccc(Cl)cc4)C3=O)c(=O)c2c1`, for which, in data set [1], the IC50 at 48 h came to 15.2 µM. The half-inhibitory concentration (IC50) in data set [2] was > 10 µM; in data set [3], 8.9 µM; in data set [4], 6.3 µM; in data set [5] it was > 10 µM; in data set [6] it was > 10 µM.
As for `O=C(CN1C(=O)S/C(=C\c2coc3cc(F)ccc3c2=O)C1=O)c1ccc(Cl)cc1`, the IC50 at 48 h in data set [1] stood at 13.4 µM. Also, the IC50 in data set [2], in data set [3], in data set [4], in data set [5] and in data set [6] was > 10 µM each time.
With `Cc1ccc(C(=O)CN2C(=O)S/C(=C\c3coc4ccc(C)cc4c3=O)C2=O)cc1`, in data set [1], the IC50 at 48 h stood at 14.1 µM. The IC50 in data set [2] was > 10 µM; in data set [3], > 10 µM; in data set [4], 8.2 µM; in data set [5], > 10 µM; in data set [6], > 10 µM.
Consider `O=C(CN1C(=O)S/C(=C\c2coc3cc(Br)ccc3c2=O)C1=O)c1ccccc1`, for which, in data set [1], the 50% inhibitory concentration (IC50) at 48 h was determined as 21.1 µM. Further, the IC50 is > 10 µM in data set [2]; > 10 µM in data set [3]; 8.8 µM in data set [4]; > 10 µM in data set [5]; > 10 µM in data set [6].
As for `N#Cc1ccc(C(=O)CN2C(=O)S/C(=C\c3coc4ccccc4c3=O)C2=O)cc1`, the IC50 at 48 h in data set [1] was determined as 27.8 µM. The 50% inhibitory concentration (IC50) was > 10 µM in data set [2]; > 10 µM in data set [3]; 8.8 µM in data set [4]; > 10 µM in data set [5]; > 10 µM in data set [6].
Regarding `O=C(CN1C(=O)S/C(=C\c2coc3ccccc3c2=O)C1=O)c1ccc(Cl)cc1`, the IC50 at 48 h in data set [1] amounted to 25 µM. In addition, the half-maximal inhibitory concentration (IC50) in data set [2] is 12.3 µM; in data set [3] it was 8.7 µM; in data set [4] it was > 10 µM; in data set [5], > 10 µM; in data set [6] it was > 10 µM.
For the compound `COc1ccc(C(=O)CN2C(=O)S/C(=C\c3coc4ccccc4c3=O)C2=O)cc1`, in data set [1], the IC50 at 48 h is 168 µM. Further, the IC50 in data set [2] was > 10 µM; in data set [3], > 10 µM; in data set [4] it was 8.8 µM; in data set [5], > 10 µM; in data set [6] it was > 10 µM.
Take `O=C(CN1C(=O)S/C(=C\c2coc3ccccc3c2=O)C1=O)c1ccc(F)cc1`: the IC50 at 48 h in data set [1] worked out at 15.5 µM. For the same compound, the IC50 in data set [2] is > 10 µM; in data set [3], > 10 µM; in data set [4] it was 8.2 µM; in data set [5], > 10 µM; in data set [6] it was > 10 µM.
As for `Cc1ccc(C(=O)CN2C(=O)S/C(=C\c3coc4cc(F)ccc4c3=O)C2=O)cc1`, the IC50 at 48 h in data set [1] was 16.6 µM. In addition, the IC50 in data set [2], in data set [3], in data set [4], in data set [5] and in data set [6] was > 10 µM each time.
Turning to `O=C(CN1C(=O)S/C(=C\c2coc3cc(Br)ccc3c2=O)C1=O)c1ccc(Cl)cc1`, the IC50 at 48 h in data set [1] amounted to 18.1 µM. For the same compound, the IC50 in data set [2] was > 10 µM; in data set [3], > 10 µM; in data set [4], 8.4 µM; in data set [5], > 10 µM; in data set [6] it was > 10 µM.
In the case of `O=C(CN1C(=O)S/C(=C\c2coc3ccc(Br)cc3c2=O)C1=O)c1ccccc1`, in data set [1], the IC50 at 48 h stood at 13.2 µM. Besides, the IC50 in data set [2], in data set [3], in data set [4], in data set [5] and in data set [6] was > 10 µM in each case.
`O=C(CN1C(=O)S/C(=C\c2coc3cc(Br)ccc3c2=O)C1=O)c1ccc(Br)cc1`: the IC50 at 48 h in data set [1] was found to be 23.6 µM. Further, the IC50 in data set [2], in data set [3], in data set [4], in data set [5] and in data set [6] was > 10 µM throughout.
Turning to `Cc1ccc2occ(/C=C3\SC(=O)N(CC(=O)c4ccccc4)C3=O)c(=O)c2c1`, the IC50 at 48 h in data set [1] was 13.6 µM. Besides, the IC50 in data set [2], in data set [3], in data set [4], in data set [5] and in data set [6] was > 10 µM throughout.
Take `O=C(CN1C(=O)S/C(=C\c2coc3ccccc3c2=O)C1=O)c1ccccc1`: in data set [1], the half-inhibitory concentration (IC50) at 48 h came out at 17.5 µM. Also, the IC50 in data set [2], in data set [3], in data set [4], in data set [5] and in data set [6] was > 10 µM in each case.
As for `O=C(CN1C(=O)S/C(=C\c2coc3ccccc3c2=O)C1=O)c1ccc(Br)cc1`, in data set [1], the half-inhibitory concentration (IC50) at 48 h turned out to be 21.1 µM. The IC50 is > 10 µM in data set [2]; > 10 µM in data set [3]; 7.8 µM in data set [4]; > 10 µM in data set [5]; > 10 µM in data set [6].
